The results in this text go back to BindingDB's records for doi:10.1016/j.bmcl.2019.126637 (Eli Lilly, 2019).

The target in the test is Cyclin-Y/Cyclin-dependent kinase 16 (Homo sapiens, UniProt Q00536+Q8ND76). As to the kind of experiment: Competitive irreversible inhibition of CDK16/cyclin Y (unknown origin) in presence of Km ATP.
Cyclin-Y/Cyclin-dependent kinase 16, sequence (Q00536 whole entry): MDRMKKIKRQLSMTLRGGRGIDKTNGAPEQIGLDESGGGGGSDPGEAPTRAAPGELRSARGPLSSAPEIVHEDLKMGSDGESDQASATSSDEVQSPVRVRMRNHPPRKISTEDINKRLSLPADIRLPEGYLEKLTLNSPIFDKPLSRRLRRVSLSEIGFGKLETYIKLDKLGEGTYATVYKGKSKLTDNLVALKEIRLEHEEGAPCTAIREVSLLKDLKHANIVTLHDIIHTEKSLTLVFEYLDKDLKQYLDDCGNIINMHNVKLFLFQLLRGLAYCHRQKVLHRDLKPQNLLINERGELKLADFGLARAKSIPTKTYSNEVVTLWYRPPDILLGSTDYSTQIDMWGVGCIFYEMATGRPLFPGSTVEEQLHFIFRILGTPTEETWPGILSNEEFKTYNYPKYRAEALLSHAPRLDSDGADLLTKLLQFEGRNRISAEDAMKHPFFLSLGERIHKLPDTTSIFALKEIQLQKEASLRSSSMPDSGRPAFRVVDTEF
Cyclin-Y/Cyclin-dependent kinase 16, sequence (Q8ND76 whole entry): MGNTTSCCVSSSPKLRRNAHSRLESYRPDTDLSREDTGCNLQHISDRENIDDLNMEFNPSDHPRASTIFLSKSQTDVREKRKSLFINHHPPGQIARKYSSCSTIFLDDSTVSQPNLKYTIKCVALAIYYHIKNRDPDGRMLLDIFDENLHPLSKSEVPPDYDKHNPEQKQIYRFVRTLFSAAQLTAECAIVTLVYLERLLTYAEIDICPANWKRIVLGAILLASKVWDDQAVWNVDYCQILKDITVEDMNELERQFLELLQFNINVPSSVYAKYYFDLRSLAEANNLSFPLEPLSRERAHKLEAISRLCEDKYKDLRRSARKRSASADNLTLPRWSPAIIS

In the case of `CN(C)C/C=C/C(=O)Nc1cccc(S(=O)(=O)N2CCC(NC(=O)c3n[nH]cc3NC(=O)c3c(Cl)cc(Cl)cc3Cl)CC2)c1`, the IC50 came out at 0.01 µM.

The term IC50 denotes the midpoint of a concentration-inhibition curve.
